Positions of bridges follow the written chain, without caps; N, C: chain ends. Non-standard residues stand in square brackets, D forms with d. No end group written: not given here. *: point of attachment. prenyl = prenyl group added to Trp by KgpF, CC(C)=CC*

20 substances from patent publication US20220275534A1, “Peptide Library Production Method” (The University of Tokyo, priority 2018, published 2022) can be followed below.

The test system of experiment [1] is KgpF. Put plainly: Prenylation of artificial cyclic peptides with 160 μM KgpF at 0° C., 20 hours (Conditions 13/14 and 19/20; Examples 10, 14, 19; Tables 6 and 18). The experiment is classed as biochemical, Microcystis aeruginosa. Details: key: 5: strong intensity; 4: medium intensity; 3: weak intensity; 2: very weak intensity; 1: no peak; N/A: not observed. Conditions: for MALDI-TOF-MS peak intensity, Number of additions 1 / MALDI-TOF-MS peak intensity, Number of additions 2 / MALDI-TOF-MS peak intensity, Number of additions 0 / MALDI-TOF-MS peak intensity, Number of additions 3: Table 6, 160 μM KgpF, 2 mM DMAPP, 0° C., 20 hours; for MALDI-TOF-MS peak intensity, Number of additions 1: 1 prenyl added; for MALDI-TOF-MS peak intensity, Number of additions 2: 2 prenyl added; for MALDI-TOF-MS peak intensity, Number of additions 0: unmodified peptide peak; for MALDI-TOF-MS peak intensity, Number of additions 3: 3 prenyl added. As for the experimental part: The artificial cyclic peptides Clone-M1 to M9 shown below were obtained by translation and synthesis in the artificial translation system (Conditions 13) developed by the present inventors. The peptides thus obtained were then reacted with 160 μM KgpF in the system shown in (Conditions 14) at 0° C. for 20 hours.
(Conditions 13) • FIT system: v8s/v11.0 • 19aa-Met: 0.5 mM • ClAc-D-Tyr-tRNA^fMetCUA: 90 μM • Reaction: 37° C., 60 min. • Scale: 2.5 μL scale
After the above reaction was performed, the reaction product was incubated at 25° C. for 12 minutes.
Then, a cyclization reaction was performed under the following conditions. • Translated mixture amount: 2.5 μL (mixture obtained by the above reaction) • EDTA: 18 mM • Reaction: 42° C., 60 min. • Scale: 2.75 μL scale
(Conditions 14) • Translated mixture amount: 2.75 μL (mixture obtained under (Conditions 13)) • KOH: 6.0 mM • Mg(OAc)2: 9.0 mM • Tris-HCl (pH 8.3) 15 mM • KgpF: 160 μM • DMAPP: 2 mM • Reaction: 0° C., 20 hours
The artificial cyclic peptides shown below were obtained by translation and synthesis in the artificial translation system (Conditions 19) developed by the present inventors. The peptides thus obtained were then reacted with 160 μM KgpF in the system shown in (Conditions 20) at 0° C. for 20 hours.
(Conditions 19) • FIT system: v8s/11.0 • 19aa-Met: 0.5 mM • ClAc-D-Tyr-tRNA^fMetCUA: 90 μM • Reaction: 37° C., 60 min. • Scale: 2.5 μL scale
(Conditions 20) • Translated mixture amount: 2.75 μL (mixture obtained under (Conditions 19)) • KOH: 6.0 mM • Mg(OAc)2: 9.0 mM • Tris-HCl (pH 8.3): 15 mM • KgpF: 160 μM • DMAPP: 2 mM • Reaction: 0° C., 20 hours
Then, the compound library was provided for a step of screening cyclic peptides having interaction with an enzyme MetAP1 (Human) as in the scheme shown in FIG. 8. It has been confirmed that with regards to some of the peptides shown in FIG. 10, peptides having these sequences are modified by prenylation as shown in Table 18 by bringing them into contact with KgpF under conditions shown in (Conditions 13) and (Conditions 14).

For experiment [2], the system named is OltF v 2.1. In words: Modification test of thioether-closed artificial cyclic peptides with 9.13 μM OltF v 2.1 (Example 16; Tables 11 and 12). It is filed as biochemical, Planktothrix. More on the design: key: 5: strong intensity; 4: medium intensity; 3: weak intensity; 2: very weak intensity; 1: no peak; N/A: not observed. The following applies: OltF v 2.1 9.13 μM, DMAPP 2 mM, 37° C., 18 hours. As for the experimental part: The artificial cyclic peptides shown in Table 11 and Table 12 were obtained by translation and synthesis in the artificial translation system (Conditions 23) developed by the present inventors. The peptides thus obtained were then reacted with 9.13 μM OltF in the system shown in (Conditions 24) at 37° C. for 18 hours. It is to be noted that OltF v 2.1 is an enzyme prepared from OltF used in (Conditions 22) while changing a purification manner.
(Conditions 23) • FIT system: v8s/v11.1 • 19aa-Met: 0.5 mM • ClAc-D or L-Tyr-tRNA^fMetCUA: 90 μM • Reaction: 37° C., 60 min. • Scale: 2.5 μL scale
(Conditions 24) • Translated mixture amount: 2.5 μL (mixture obtained under (Conditions 23)) • OltF v 2.1: 9.13 μM • DMAPP: 2 mM • Reaction: 37° C., 18 hours

Setting [3] is: Table 18, Conditions 13 and 14 (160 μM KgpF, 0° C., 20 hours), NSGGVS added to C terminal.

Chain of KgpF (as listed by the source): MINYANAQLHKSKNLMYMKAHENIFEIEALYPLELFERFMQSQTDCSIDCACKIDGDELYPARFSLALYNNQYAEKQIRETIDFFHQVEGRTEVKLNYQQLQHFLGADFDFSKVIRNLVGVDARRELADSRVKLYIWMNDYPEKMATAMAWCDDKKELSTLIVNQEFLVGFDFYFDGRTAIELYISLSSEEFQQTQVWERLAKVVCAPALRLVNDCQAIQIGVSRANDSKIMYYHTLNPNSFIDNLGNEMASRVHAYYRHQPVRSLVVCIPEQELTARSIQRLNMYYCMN
Chain of OltF v 2.1 (as listed by the source): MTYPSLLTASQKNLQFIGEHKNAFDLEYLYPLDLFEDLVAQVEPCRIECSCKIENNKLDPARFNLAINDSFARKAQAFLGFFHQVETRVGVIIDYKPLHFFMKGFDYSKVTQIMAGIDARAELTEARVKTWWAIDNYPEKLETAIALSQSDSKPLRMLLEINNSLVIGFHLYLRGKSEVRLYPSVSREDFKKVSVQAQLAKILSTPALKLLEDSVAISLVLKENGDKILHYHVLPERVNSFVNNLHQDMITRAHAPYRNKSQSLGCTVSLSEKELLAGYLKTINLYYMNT

Consider “Clone-M9: artificial cyclic peptide containing a plurality of Trps (Ac-[dY]SFHWGLAVWDHNC; thioether (positions not given here); not fully specified (bridges))”, for which, in experiment [1], the “MALDI-TOF-MS peak intensity, Number of additions 1” value stood at 1; the “MALDI-TOF-MS peak intensity, Number of additions 2” value was 5; the “MALDI-TOF-MS peak intensity, Number of additions 0” value worked out at 1.
In the case of “Clone-M3: artificial cyclic peptide containing a plurality of Trps (Ac-[dY]SWSPAWVRQADIC; thioether (positions not given here); not fully specified (bridges))”, in experiment [1], the “MALDI-TOF-MS peak intensity, Number of additions 1” value was 1; the “MALDI-TOF-MS peak intensity, Number of additions 2” value is recorded as 4; the “MALDI-TOF-MS peak intensity, Number of additions 0” value was 1.
“DNT061 (Ac-[dY]NNRERGSDFFWFFPC; thioether (positions not given here); not fully specified (bridges))”: in experiment [2] (Table 12), the “Peak intensity, The number of prenyl groups added 0” value worked out at 2 and the “Peak intensity, The number of prenyl groups added 1” value was 5.
As for “DNT063 (Ac-[dY]NNRERGSDYYWYYPC; thioether (positions not given here); not fully specified (bridges))”, in experiment [2] (Table 12), the “Peak intensity, The number of prenyl groups added 0” value is given as 2 and the “Peak intensity, The number of prenyl groups added 1” value was found to be 5.
For “Clone-M6: artificial cyclic peptide containing a plurality of Trps (Ac-[dY]ILSQENHVWSLWC; thioether (positions not given here); not fully specified (bridges))”, in experiment [1], the “MALDI-TOF-MS peak intensity, Number of additions 1” value came to 5; the “MALDI-TOF-MS peak intensity, Number of additions 2” value was determined as 5; the “MALDI-TOF-MS peak intensity, Number of additions 0” value is given as 1.
As for “Clone-M4: artificial cyclic peptide containing a plurality of Trps (Ac-[dY]RVSNTWWQRHRWC; thioether (positions not given here); not fully specified (bridges))”, in experiment [1], the “MALDI-TOF-MS peak intensity, Number of additions 1” value was 4; the “MALDI-TOF-MS peak intensity, Number of additions 2” value stood at 1; the “MALDI-TOF-MS peak intensity, Number of additions 3” value is on record as 1; the “MALDI-TOF-MS peak intensity, Number of additions 0” value worked out at 1.
With “YG289 ({CH2CO}-[dY]HDYRIWRYHTYPC; thioether N-14 (inferred))”, in experiment [2] (Table 11), the “Peak intensity, The number of prenyl groups added 0” value is on record as 1 and the “Peak intensity, The number of prenyl groups added 1” value was found to be 5.
On to “Met9: prenylated cyclic peptide identified by screening with MetAP1 as a target (Ac-[dY]KRKNCLVHVW(prenyl)HQCNSGGVS; thioether (positions not given here); not fully specified (C-terminus))”, for which, in experiment [1] (setting [3]), the “Peak intensity, The number of prenyl groups added 0” value is reported as 1 and the “Peak intensity, The number of prenyl groups added 1” value is 5.
Consider “DNT066 (Ac-[dY]NNRERGSDVVWVVPC; thioether (positions not given here); not fully specified (bridges))”, for which, in experiment [2] (Table 12), the “Peak intensity, The number of prenyl groups added 0” value worked out at 4 and the “Peak intensity, The number of prenyl groups added 1” value amounted to 5.
“Clone-M2: artificial cyclic peptide containing a plurality of Trps (Ac-[dY]SAWHGKDNYDWFC; thioether (positions not given here); not fully specified (bridges))”: in experiment [1], the “MALDI-TOF-MS peak intensity, Number of additions 1” value is on record as 5; the “MALDI-TOF-MS peak intensity, Number of additions 2” value stood at 1; the “MALDI-TOF-MS peak intensity, Number of additions 0” value is reported as 1.
In the case of “DNT065 (Ac-[dY]NNRERGSDNNWNNPC; thioether (positions not given here); not fully specified (bridges))”, in experiment [2] (Table 12), the “Peak intensity, The number of prenyl groups added 0” value worked out at 3 and the “Peak intensity, The number of prenyl groups added 1” value was found to be 5.
As to “Met11: cyclic peptide SEQ ID NO: 363 identified by screening with MetAP1 as a target ({CH2CO}-[dY]HTDPFKAWHRRSCNSG; thioether N-14 (inferred); not fully specified)”, in experiment [1] (setting [3]), the “Peak intensity, The number of prenyl groups added 0” value is 1 and the “Peak intensity, The number of prenyl groups added 1” value is listed as 5.
On to “YG299 (Ac-[dY]CDVSGRWGYFPC; thioether (positions not given here); not fully specified (bridges))”, for which, in experiment [2] (Table 11), the “Peak intensity, The number of prenyl groups added 0” value worked out at 3 and the “Peak intensity, The number of prenyl groups added 1” value turned out to be 5.
As to “DNT034 (Ac-[dY]NNRERGSDYFWLPPC; thioether (positions not given here); not fully specified (bridges))”, in experiment [2] (Table 12), the “Peak intensity, The number of prenyl groups added 0” value is 1 and the “Peak intensity, The number of prenyl groups added 1” value is listed as 5.
In the case of “Met13: cyclic peptide SEQ ID NO: 364 identified by screening with MetAP1 as a target ({CH2CO}-[dY]VTWKGPYRWRVCNSG; thioether N-13 (inferred); not fully specified)”, in experiment [1] (setting [3]), the “Peak intensity, The number of prenyl groups added 0” value worked out at 1; the “Peak intensity, The number of prenyl groups added 1” value was found to be 5; the “Peak intensity, The number of prenyl groups added 2” value is 1.
Consider “Clone-M7: artificial cyclic peptide containing a plurality of Trps (Ac-[dY]LWVLRSDNTPWVC; thioether (positions not given here); not fully specified (bridges))”, for which, in experiment [1], the “MALDI-TOF-MS peak intensity, Number of additions 1” value came to 4; the “MALDI-TOF-MS peak intensity, Number of additions 2” value is 5; the “MALDI-TOF-MS peak intensity, Number of additions 0” value is on record as 1.
With “Clone-M8: artificial cyclic peptide containing a plurality of Trps (Ac-[dY]THEWPWRTGWTRC; thioether (positions not given here); not fully specified (bridges))”, in experiment [1], the “MALDI-TOF-MS peak intensity, Number of additions 1” value is on record as 1; the “MALDI-TOF-MS peak intensity, Number of additions 2” value amounted to 5; the “MALDI-TOF-MS peak intensity, Number of additions 3” value amounted to 1; the “MALDI-TOF-MS peak intensity, Number of additions 0” value stood at 1.
On to “Clone-M1: artificial cyclic peptide containing a plurality of Trps ([dY]LRLNHTWSTWTSC; thioether (positions not given here); not fully specified (N-terminus, bridges); also: cyclic)”, for which, in experiment [1], the “MALDI-TOF-MS peak intensity, Number of additions 1” value came to 1; the “MALDI-TOF-MS peak intensity, Number of additions 2” value is recorded as 5; the “MALDI-TOF-MS peak intensity, Number of additions 0” value was 1.
On to “Met12: prenylated cyclic peptide identified by screening with MetAP1 as a target ({CH2CO}-[dY]YIIW(prenyl)HRHRIMTVCNSGGVS; thioether N-14 (inferred); not fully specified (C-terminus); also: C-terminus linked to its mRNA (mRNA display))”, for which, in experiment [1] (setting [3]), the “Peak intensity, The number of prenyl groups added 0” value is on record as 3 and the “Peak intensity, The number of prenyl groups added 1” value amounted to 4.
With “Clone-M5: artificial cyclic peptide containing a plurality of Trps (Ac-[dY]LWSKNSQPWPESC; thioether (positions not given here); not fully specified (bridges))”, in experiment [1], the “MALDI-TOF-MS peak intensity, Number of additions 1” value stood at 5; the “MALDI-TOF-MS peak intensity, Number of additions 2” value worked out at 1; the “MALDI-TOF-MS peak intensity, Number of additions 0” value stood at 3.
